Data on 18 compounds can be found in patent publication US5164388A, “Heterocyclic peptide renin inhibitors” (Abbott Laboratories, priority 1991, dated 1992).

In general, IC50 refers to the concentration that inhibits the measured activity by half.

Structures are written as SMILES.

In the assay the target is T1, human renal renin (Homo sapiens, UniProt P00797).
T1 construct: human renal renin, free from acid proteolytic activity; from tissue
T1 sequence (P00797 67-406): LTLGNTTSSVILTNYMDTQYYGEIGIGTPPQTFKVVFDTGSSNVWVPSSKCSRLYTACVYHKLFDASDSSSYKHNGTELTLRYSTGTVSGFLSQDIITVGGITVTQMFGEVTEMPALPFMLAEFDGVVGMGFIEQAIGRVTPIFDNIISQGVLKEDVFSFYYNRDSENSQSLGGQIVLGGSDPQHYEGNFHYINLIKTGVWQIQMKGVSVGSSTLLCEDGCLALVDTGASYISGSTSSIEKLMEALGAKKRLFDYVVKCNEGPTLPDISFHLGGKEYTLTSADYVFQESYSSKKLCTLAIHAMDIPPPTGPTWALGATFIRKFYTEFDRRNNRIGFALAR
Kind of assay: Inhibition of human renal renin in vitro (angiotensin I formed, radioimmunoassay). The following applies: human angiotensinogen substrate, 37 degrees C., pH 6.0. The format is biochemical. Here is the method:
The novel compounds of the present invention are also useful for treating congestive heart failure. […] At the end of the incubation, the amount of angiotensin I formed is measured by radioimmunoassay and the molar concentration required to cause 50% inhibition, expressed as the IC50, is calculated.
On to `CC(C)C[C@H](O)[C@H](O)[C@H](CC1CCCCC1)NC(=O)C(Cc1cnc[nH]1)N1CCC(Cc2ccccc2)(NC(=O)OCc2ccccc2)C1=O` (single isomer, unassigned) [Example 63C], for which the IC50 stood at 4.5 nM.
As for `CC(C)C[C@H](O)[C@H](O)[C@H](CC1CCCCC1)NC(=O)[C@H](Cc1c[nH]cn1)N1C[C@H](Cc2ccccc2)NC1=O` [Example 120, (2S)-2-(Imidazol-4-ylmethyl)-2-((4S)-phenylmethylimidazolidin-2-one-1-yl)acetic Acid Amide of (2S)-Amino-1-cyclohexyl-3(R),4(S)-dihydroxy-6-methylheptane], the figure is 650 nM; as for `CCN1C[C@@H]([C@H](O)[C@H](CC2CCCCC2)NC(=O)[C@H](Cc2cnc[nH]2)N2C[C@H](Cc3ccccc3)N(CC(C)C)C2=O)OC1=O` [Example 119, (2S)-2-(Imidazol-4-ylmethyl)-2-(3-isobutyl-(4S)-phenylmethylimidazolidin-2-one-1-yl)acetic Acid Amide of (2'S,1'R,5S)-3-Ethyl-5-(1'-hydroxy-2'-amino-3'-cyclohexylpropyl)oxazolidin-2-one], 150 nM; as for `CC(C)C[C@H](O)[C@H](O)[C@H](CC1CCCCC1)NC(=O)C(Cc1cnc[nH]1)N1CCC[C@](Cc2ccccc2)(NC(=O)OCc2ccccc2)C1=O` (single isomer, unassigned) [Example 88, (2R or 2S)-((3R)-((Benzyloxycarbonyl)amino)-3-phenylmethyl-2-oxo-1-piperidinyl)-3-(4-imidazolyl)propionic acid amide of (2S,3R,4S)-2-amino-1-cyclohexyl-3,4-dihydroxy-6-methylheptane], 28 nM.
The figure for `CCCC[C@H](NC[C@@H](Cc1ccccc1)NC(=O)OCc1ccccc1)C(=O)OC` [Example 21] is 62 nM; for `CC(C)C[C@H](O)[C@H](O)[C@H](CC1CCCCC1)NC(=O)C(Cc1cscn1)N1CCN(Cc2ccccc2)[C@H](Cc2ccccc2)C1` (stereo partly drawn) [Example 36, 3-(4-Thiazolyl)-2-(R,S)-(3R-benzyl-4-N-benzylpiperazin-1-yl)-propionic acid Amide of 2(S)-Amino-1-cyclohexyl-3(R),4(S)-dihydroxy-6-methylheptane] it is 330 nM.
With `Cc1ccc(S(=O)(=O)N[C@]2(Cc3ccccc3)CCCN([C@@H](Cc3c[nH]cn3)C(=O)N[C@@H](CC3CCCCC3)[C@@H](O)[C@@H](O)CC(C)C)C2=O)cc1` [Example 156], the IC50 is 1.4 nM.
The compound `CCCCC(C(=O)N[C@@H](CC1CCCCC1)[C@@H](O)[C@@H](O)CC(C)C)N1CCCC(Cc2ccccc2)C1` (stereo partly drawn) [Example 20, 2(3-Benzylpiperidin-1-yl)-hexanoic acid Amide of 2(S)-Amino-1-cyclohexyl-3(R),4(S)-dihydroxy-6-methylheptane] gave an IC50 of 240 nM.
As for `CCN1C[C@@H]([C@H](O)[C@H](CC2CCCCC2)NC(=O)C(Cc2ncc[nH]2)N2CCN(S(=O)(=O)N3CCN(C)CC3)[C@H](Cc3ccccc3)C2=O)OC1=O` (stereo partly drawn) [Example 143, 3-(2-imidazolyl)-2-(3R-benzyl-4-N-(N-methylpiperazyl)-sulfonyl-2-keto-piperazin-1-yl)-propionic acid Amide of (2'S,1'R,5S)-3-Ethyl-5-(1'-hydroxy-2'-amino-3'-cyclohexylpropyl)oxazolidin-2-one], the IC50 was determined as 1.7 nM.
`CCCCNC(=O)[C@H](C[C@H](O)[C@H](CC1CCCCC1)NC(=O)C(Cc1cscn1)N1CCN(S(=O)(=O)c2ccc(C)cc2)[C@H](Cc2ccccc2)C1=O)C(C)C` (stereo partly drawn) [Example 130, 3-(4-Thiazolyl)-2-(3R-benzyl-4-N-p-toluene-sulfonyl-2-keto-piperazin-1-yl)-propionic acid Amide of Butyl 5(S)-amino-6-cyclohexyl-4(S)-hydroxy-2(R)-isopropylhexan-amide] displayed an IC50 of 0.73 nM.
`CCCCNC(=O)[C@H](C[C@H](O)[C@H](CC1CCCCC1)NC(=O)C(Cc1cscn1)N1CCN(C(=O)N2CCOCC2)[C@H](Cc2ccccc2)C1=O)C(C)C` (stereo partly drawn) [Example 129, 3-(3-Thiazolyl)-2-(3R-benzyl-4-N-morpholin-1-yl-carbonyl-2-keto-piperazin-1-yl)-propionic acid Amide of Butyl 5(S)-amino-6-cyclohexyl-4(S)-hydroxy-2(R)-isopropylhexan-amide] had a half-inhibitory concentration (IC50) of 1.3 nM.
The compound `CC(C)C[C@H](O)[C@H](O)[C@H](CC1CCCCC1)NC(=O)[C@H](Cc1c[nH]cn1)N1C[C@H](Cc2ccccc2)CC1=O` [Example 122, (2S)-2-(Imidazol-4-ylmethyl)-2-((4R)-phenylmethyl-2-oxopyrrolidin-1-yl)acetic Acid Amide of (2S)-Amino-1-cyclohexyl-3(R),4(S)-dihydroxy-6-methylheptane] returned an IC50 of 580 nM.
With `Cc1ccc(S(=O)(=O)N2CCN(C(Cc3cscn3)C(=O)N[C@@H](CC3CCCCC3)[C@@H](O)[C@@H](O)CC(C)C)C(=O)[C@H]2Cc2ccccc2)cc1` (stereo partly drawn) [Example 131, 3-(3-Thiazolyl)-2-(3R-benzyl-4-N-p-toluene-sulfonyl-2-keto-piperazin-1-yl)-propionic acid Amide of 2(S)-amino-1-cyclohexyl-3(R),4(S)-dihydroxyl-6-methylheptane], it took 3 nM to reach half-maximal inhibition (IC50).
As for `CCCC[C@@H](C(=O)N[C@@H](CC1CCCCC1)[C@@H](O)[C@@H](O)CC(C)C)N1CCN(C(=O)N(C)CCOCOC)[C@H](Cc2ccccc2)C1=O` [Example 48, 2(S)-(3R-Benzyl-4-N-(N-methyl-N-(methoxymethoxyethyl)-aminocarbonyl)-2-keto-piperazin-1-yl)-hexanoic acid Amide of 2(S)-Amino-1-cyclohexyl-3(R),4(S)-dihydroxy-6-methylheptane], the figure is 22 nM; as for `Cc1ccc(S(=O)(=O)N2CCN(C(Cc3cscn3)C(=O)N[C@@H](CC3CCCCC3)[C@@H](O)[C@@H]3C[C@H](C)CO3)C(=O)[C@H]2Cc2ccccc2)cc1` (stereo partly drawn) [Example 140, 3-(S-Thiazolyl)-2-(3R-benzyl-4-N-p-toluene-sulfonyl-2-keto-piperazin-1-yl)-propionic acid Amide of 2(S)-(2(S)-Amino-3-cyclohexyl-1(R)-hydroxy)propyl-4(S)-methyltetrahydrofuran], 3.4 nM; as for `C[C@@H]1CO[C@H]([C@H](O)[C@H](CC2CCCCC2)NC(=O)C(Cc2nccn2C(=O)OC(C)(C)C)N2CCN(S(=O)(=O)N3CCN(C)CC3)[C@H](Cc3ccccc3)C2=O)C1` (stereo partly drawn) [Example 146, 3-(3N-tert-butyloxycarbonyl-2-imidazolyl)-2-(3R-benzyl-4N-(N-methylpiperazyl)-sulfonyl-2-keto-piperazin-1-yl)-propionic acid Amide of 2(s)-(2(s)-Amino-3-cyclohexyl-1(R) hydroxy)propyl-4(S)-methyltetrahydrofuran], 1.6 nM.
The figure for `CCCC[C@@H](C(=O)N[C@@H](CC1CCCCC1)[C@@H](O)[C@@H](O)CC(C)C)N1CC(=O)N[C@H](Cc2ccccc2)C1` [Example 24] is 170 nM.
As to `CC(C)C[C@H](O)[C@H](O)[C@H](CC1CCCCC1)NC(=O)[C@H](Cc1cnc[nH]1)N1C[C@H](Cc2ccccc2)N(CC(C)C)C1=O` [Example 118, (2S)-2-(Imidazol-4-ylmethyl)-2-(3-isobutyl-(4S)-phenylmethylimidazolidin-2-one-1-yl)acetic Acid Amide of (2)-Amino-1-cyclohexyl-3(R),4(S)-dihydroxy-6-methylheptane], the half-inhibitory concentration (IC50) was 150 nM.
